Assay results taken from ChEMBL document CHEMBL1154749, “P2'-truncated BACE-1 inhibitors with a novel hydroxethylene-like core” (Eur J Med Chem, 2010).

Each compound was assayed against Beta-secretase 1 (Homo sapiens, UniProt P56817) (assay: Inhibition of human brain BACE1 expressed in Escherichia coli BL21(DE) by TRF assay).
Sequence of Beta-secretase 1 (P56817 whole entry): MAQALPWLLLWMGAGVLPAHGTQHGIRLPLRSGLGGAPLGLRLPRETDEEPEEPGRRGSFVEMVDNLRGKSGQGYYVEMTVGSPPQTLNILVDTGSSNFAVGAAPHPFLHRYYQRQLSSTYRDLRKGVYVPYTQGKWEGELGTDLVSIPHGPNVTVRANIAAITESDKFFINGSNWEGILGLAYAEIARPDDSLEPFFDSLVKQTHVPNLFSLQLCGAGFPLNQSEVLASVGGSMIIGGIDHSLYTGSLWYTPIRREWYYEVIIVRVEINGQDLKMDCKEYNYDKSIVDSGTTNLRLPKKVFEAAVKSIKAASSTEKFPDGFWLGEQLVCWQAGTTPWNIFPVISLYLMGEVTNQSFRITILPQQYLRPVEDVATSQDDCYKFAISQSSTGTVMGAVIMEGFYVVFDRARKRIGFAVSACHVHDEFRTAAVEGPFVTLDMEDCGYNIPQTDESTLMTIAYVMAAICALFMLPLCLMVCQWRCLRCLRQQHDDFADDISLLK

Compound | IC50 [µM]
CO[C@@H](COCC1CC1)C[C@H](O)[C@H](COc1cc(F)cc(F)c1)NC(=O)c1cc(C(=O)N[C@H](C)c2ccccc2)cc(N(C)S(C)(=O)=O)c1 | 1.86
CO[C@@H](CNCc1ccccc1)C[C@@H](O)[C@H](COc1cc(F)cc(F)c1)NC(=O)c1cc(C(=O)N[C@H](C)c2ccccc2)cc(N(C)S(C)(=O)=O)c1 | > 10
CO[C@@H](CNc1ccccc1)C[C@H](O)[C@H](COc1cc(F)cc(F)c1)NC(=O)c1cc(C(=O)N[C@H](C)c2ccccc2)cc(N(C)S(C)(=O)=O)c1 | 1.5
C=CCOC[C@@H](C[C@H](O)[C@H](COc1cc(F)cc(F)c1)NC(=O)c1cc(C(=O)N[C@H](C)c2ccccc2)cc(N(C)S(C)(=O)=O)c1)OC | 2.03
COc1ccc(COC[C@@H](C[C@H](O)[C@H](COc2cc(F)cc(F)c2)NC(=O)c2cc(N(C)C[C@H]3C[C@@H]3C)nc(N(C)S(C)(=O)=O)c2)OC)cc1 | 1.8
CO[C@@H](COCc1ccc(F)cc1)C[C@H](O)[C@H](COc1cc(F)cc(F)c1)NC(=O)c1cc(C(=O)N[C@H](C)c2ccccc2)cc(N(C)S(C)(=O)=O)c1 | > 10
CO[C@@H](COc1ccccc1)C[C@H](O)[C@H](COc1cc(F)cc(F)c1)NC(=O)c1cc(C(=O)N[C@H](C)c2ccccc2)cc(N(C)S(C)(=O)=O)c1 | 6.5
CO[C@@H](COC(C)C)C[C@H](O)[C@H](COc1cc(F)cc(F)c1)NC(=O)c1cc(C(=O)N[C@H](C)c2ccccc2)cc(N(C)S(C)(=O)=O)c1 | 0.48
CO[C@@H](CNc1ccc(F)cc1)C[C@H](O)[C@H](COc1cc(F)cc(F)c1)NC(=O)c1cc(C(=O)N[C@H](C)c2ccccc2)cc(N(C)S(C)(=O)=O)c1 | 1.5
COC[C@@H](C[C@H](O)[C@H](COc1cc(F)cc(F)c1)NC(=O)c1cc(C(=O)N[C@H](C)c2ccccc2)cc(N(C)S(C)(=O)=O)c1)OC | > 10
CO[C@@H](CNCc1ccccc1)C[C@H](O)[C@H](COc1cc(F)cc(F)c1)NC(=O)c1cc(C(=O)N[C@H](C)c2ccccc2)cc(N(C)S(C)(=O)=O)c1 | > 10
CO[C@@H](COCc1ccccc1)C[C@H](O)[C@H](COc1cc(F)cc(F)c1)NC(=O)c1cc(C(=O)N[C@H](C)c2ccccc2)cc(N(C)S(C)(=O)=O)c1 | 0.24
COc1cccc(COC[C@@H](C[C@H](O)[C@H](COc2cc(F)cc(F)c2)NC(=O)c2cc(C(=O)N[C@H](C)c3ccccc3)cc(N(C)S(C)(=O)=O)c2)OC)c1 | > 10
CO[C@@H](CO)C[C@H](O)[C@H](COc1cc(F)cc(F)c1)NC(=O)c1cc(C(=O)N[C@H](C)c2ccccc2)cc(N(C)S(C)(=O)=O)c1 | > 10
CCc1cn2c3c(ccc(C(=O)N[C@@H](COc4cc(F)cc(F)c4)[C@@H](O)C[C@H](COCc4ccc(OC)cc4)OC)c13)N(C)S(=O)(=O)CC2 | 1.5
COc1ccc(COC[C@@H](C[C@H](O)[C@H](COc2cc(F)cc(F)c2)NC(=O)c2cc(C(=O)N[C@H](C)c3ccccc3)cc(N(C)S(C)(=O)=O)c2)OC)cc1 | 0.14
